Publication PMC6935304 (International Journal of Nanomedicine, 2019)
Like-named read-outs stand apart in the source and are kept apart here.

Experiments:
plasma proteins [1] = conditions: rat; cited from earlier work
CSE = assay: Immunoblot of CSE expression in hearts of heart failure rats; assay type: in vivo; conditions: rat heart, 6 weeks after myocardial infarction
plasma proteins [2] = conditions: dog; cited from earlier work
plasma proteins [3] = conditions: human; cited from earlier work
[4] = In vitro drug release by dialysis against PBS, HPLC; assay type: physicochemical; conditions: room temperature

Time to release from the dialysis tubing [4]: ≤ 30 min
Substance: S-propargyl-cysteine [ZYZ-802]
Binding rate to plasma proteins (plasma proteins [1]): very low | CSE expression relative to HF group or DP-LP group (CSE): 1.6 times | Binding rate to plasma proteins (plasma proteins [2]): very low | Binding rate to plasma proteins (plasma proteins [3]): very low
